Results taken from patent US20120035241A1, “USE OF INHIBITORS OF PLAC8 ACTIVITY FOR THE MODULATION OF ADIPOGENESIS” (SANOFI-AVENTIS, priority 2008, published 2012).

Tests used:
[1] = test system: SCAT and VAT gene expression; assay: cDNA microarray of visceral and subcutaneous adipose tissue of high fat diet fed mice treated with rimonabant; assay type: in vivo; settings: C57BL/6J mice, 6 months HFD, then one month rimonabant 10 mg/kg/day; genes up-regulated by HFD (Plac8 and Rp9h down-regulated)
Excerpt: C57BL/6J mice, which are obesity-prone (Collins et al. 2004), were fed for 6 months with a high fat diet (HFD).
RNA from 5 different mice per group was extracted from visceral and subcutaneous adipose tissues using peqGOLD Trifast™ (peqlab) and chloroform-isoamylalcool (24:1) extraction. RNA was precipitated with isopropanol and purified by passage over RNeasy columns (Qiagen). RNA quality was checked before and after amplification with a Bioanalyzer 2100 (Agilent). RNA was reverse transcribed and RNA was amplified with MessageAmp™ kit (Ambion). A Mouse Universal Reference (Clontech) was similarly amplified and both adipose tissue and reference RNAs were labeled by an indirect technique with Cy5 and Cy3 according to published protocols (De Fourmestraux et al., 2004). Labeled RNAs were hybridized to microarrays containing 17664 cDNAs prepared at the DNA Array Facility of the University of Lausanne. Scanning, image, and quality control analyses were performed as previously published (de Fourmestraux et al., J. Biol. Chem. 2004 279:50743-53). Data were expressed as log2 intensity ratios (Cy5/Cy3), normalized with a print tip locally weighted linear regression (Lowess) method and filtered based on spot quality and incomplete annotation. All analyses were performed with the R software for statistical computing available at the Comprehensive R Archive Network (cran.us.r-project.org/).

Plac8 = assay: Retroviral transduction of 3T3-L1 cells with shRNA, Plac8 mRNA by RT-PCR; assay type: cell-based, mouse; settings: 3T3-L1 cells infected 6 hours with retroviral vectors, day 0 prior differentiation, RT-PCR (FIG. 3B)
Description: 3T3-L1 cells were cultured in DMEM (Gibco) with 10% FBS (Gibco) at 5% CO2. After retroviral infection (see below), cells were allow to grow to confluence in either 100-mm or 60-mm dishes in DMEM with 10% FBS. Once confluence was reached, cells were exposed to differentiation medium containing dexamethasone (1 μM), insulin (5 μg/ml), and isobutylmethylxanthine ([…]) (DMI). After 2 days cells were maintained in medium containing insulin (5 μg/ml) until ready for harvest at 7 days.
Retroviruses were constructed in the RNAi-Ready pSIREN-RetroQ ZsGreen (pSIREN Clontech) or pMSCV puromycin plasmid (pMSCV, Clontech). Viral constructs were transfected using calcium-phosphate method described in Jordan, M., et al. (2004) into 293 HEK packaging cells along with constructs encoding gag-pol and the VSV-G protein. Supernatants were harvested after 48 h in presence of […] of Trichostatin A (Sigma) and either used immediately or snap frozen and stored at −80° C. for later use. Viral supernatants were added to the cells for 6 hours in the presence of polybrene (4 μg/ml) and diluted two times with fresh medium for the next 15 hours.
Total RNA was isolated from cultured cells using peqGOLD TriFast reagent according to the manufacturer's instructions (Axonlab). First strand cDNA was synthesized from 0.5 μg of total RNA using random primers and Superscript II (Invitrogen). […]

Cc1c(C(=O)NN2CCCCC2)nn(-c2ccc(Cl)cc2Cl)c1-c1ccc(Cl)cc1 [rimonabant]
expression of 34 gene candidates regulated by HFD in SCAT and VAT [1]: normalized

B1: shLuc: negative control siRNA sequence against luciferase, SEQ ID NO. 8 (nucleic acid)
chain: GATCCGTGCGTTGCTAGTACCAATTCAAGAGATTGGTACTAGCAACGCACTTTTTTACGCGTG
modifications: listed as DNA, chemistry not fully specified
knockdown for Plac8 (mRNA) (Plac8): no inhibition
